Measurements from US20260158014A1, “METHODS OF ADMINISTERING VOXELOTOR” (Global Blood Therapeutics, Inc., priority 2021, published 2026).
“Also recorded” adds a separate entry of the source.

Tests used:
patients treated = assay: Hypersensitivity reactions in treated patients; details: human, in vivo
[1] = Tablet for oral suspension versus oral tablet exposure in healthy subjects; assay type: in vivo, human
[2] = Clinical DDI: acid reducing agent omeprazole on voxelotor; details: in vivo
pregnant rats [3] = assay: Pre- and postnatal development study in rats; assay type: in vivo, rat
Experimental: In a pre- and postnatal development study, voxelotor was administered orally to pregnant rats at 15, 50 and 250 mg/kg/day (gestation day 6 through lactation day 20). Maternal gestational body weights were decreased at 250 mg/kg/day, which continued to the end of lactation.

P-gp = P-gp (Homo sapiens, UniProt P08183); assay: In vitro transporter study; assay type: in vitro ADME
CYP3A4 [4] = biological target: T1, CYP3A4 (Homo sapiens, UniProt P08684); assay: Clinical DDI: strong CYP3A4 inhibitor itraconazole on voxelotor; assay type: in vivo; design: host or cells: Simcyp PBPK simulation; details: healthy subjects
BSEP = BSEP (Homo sapiens, UniProt O95342); assay: In vitro transporter study; assay type: in vitro ADME
[5] = Physicochemical description (solubility, hygroscopicity); details: crystalline Form II free base
CYP3A4 [6] = biological target: T1, CYP3A4; assay: Clinical probe-substrate DDI study: midazolam; details: human, in vivo
Experimental: The effect of voxelotor on the pharmacokinetics (PK) of a single dose of caffeine, warfarin sodium, omeprazole, and midazolam hydrochloride, which are probe substrates for cytochrome P450 (CYP)1A2, CYP2C9, CYP2C19, and CYP3A4, respectively, were studied in healthy subjects. During Period 1, subjects received a single dose of caffeine 100 mg, warfarin sodium 10 mg+vitamin K 10 mg, omeprazole 20 mg, and midazolam hydrochloride 2 mg on Day 1. During Period 2, subjects received voxelotor 900 mg QD on Days 1 and 2 followed by 600 mg QD on Day 3, a single dose of caffeine 100 mg, warfarin sodium 10 mg+vitamin K 10 mg, omeprazole 20 mg, and midazolam hydrochloride 2 mg on Day 4, and voxelotor 600 mg QD on Days 4 through 7.
Whole blood and plasma concentrations of voxelotor and plasma concentrations of caffeine, paraxanthine, S-warfarin, omeprazole, 5-hydroxyomeprazole, midazolam, and 1-hydroxymidazolam were determined using validated assays.

pregnant rats [7] = assay: Embryo-fetal development study in rats; assay type: in vivo, rat; details: oral 15, 50, 250 mg/kg/day, gestation days 7 through 17
Experimental: In embryo-fetal development studies, voxelotor was administered orally to pregnant rats at 15, 50, and 250 mg/kg/day (gestation days 7 through 17) and rabbits at 25, 75, and 150 mg/kg/day (gestation days 7 through 19) through organogenesis.

patients with SCD = assay: HOPE Phase 3 trial: efficacy; assay type: in vivo, human
Experimental: The efficacy and safety of OXBRYTA in SCD was evaluated in HOPE, a Phase 3 randomized, double-blind, placebo-controlled, multicenter trial [NCT 03036813]. In this study, 274 patients were randomized to daily oral administration of OXBRYTA 1,500 mg (N=90), OXBRYTA 900 mg (N=92), or placebo (N=92). Patients were included if they had from 1 to 10 vaso-occlusive crisis (VOC) events within 12 months prior to enrollment and baseline hemoglobin (Hb) ≥5.5 to ≤10.5 g/dL. Eligible patients on stable doses of hydroxyurea for at least 90 days were allowed to continue hydroxyurea therapy throughout the study. Randomization was stratified by patients already receiving hydroxyurea (yes, no), geographic region (North America, Europe, Other), and age (12 to <17 years, 18 to 65 years). The trial excluded patients who received red blood cell (RBC) transfusions within 60 days and erythropoietin within 28 days of enrollment, had renal insufficiency, uncontrolled liver disease, were pregnant, or lactating.
The majority of patients had HbSS or HbS/beta^0-thalassemia genotype (90%) and were receiving background hydroxyurea therapy (65%). The median age was 24 years (range: 12 to 64 years); 46 (17%) patients were 12 to <17 years. Median baseline Hb was 8.5 g/dL (5.9 to 10.8 g/dL). One hundred and fifteen (42%) had 1 VOC event and 159 (58%) had 2 to 10 events within 12 months prior to enrollment. In the OXBRYTA 1,500 mg group, 63 (70%) patients completed the study through Week 72.
Efficacy was based on Hb response rate defined as a Hb increase of >1 g/dL from baseline to Week 24 in patients treated with OXBRYTA 1,500 mg versus placebo. […] No outlier subgroups were observed. The distribution of Hb change from baseline for individual patients completing 24 weeks of treatment with OXBRYTA 1,500 mg or placebo is depicted in FIG. 2.
Additional efficacy evaluation included change in Hb and percent change in indirect bilirubin and percent reticulocyte count from baseline to Week 24 (Table 15).

OAT1 = OAT1 (Homo sapiens, UniProt Q4U2R8); assay: In vitro transporter study; assay type: in vitro ADME
rats = assay: Fertility and early embryonic development study; assay type: in vivo, rat
Experimental: In a fertility and early embryonic development study, voxelotor was administered orally to rats at 15, 50, and 250 mg/kg/day. Males were dosed 28 days prior to mating through cohabitation and females were dosed 14 days prior to mating through gestation Day 7.

T1 sequence (P08684 whole entry): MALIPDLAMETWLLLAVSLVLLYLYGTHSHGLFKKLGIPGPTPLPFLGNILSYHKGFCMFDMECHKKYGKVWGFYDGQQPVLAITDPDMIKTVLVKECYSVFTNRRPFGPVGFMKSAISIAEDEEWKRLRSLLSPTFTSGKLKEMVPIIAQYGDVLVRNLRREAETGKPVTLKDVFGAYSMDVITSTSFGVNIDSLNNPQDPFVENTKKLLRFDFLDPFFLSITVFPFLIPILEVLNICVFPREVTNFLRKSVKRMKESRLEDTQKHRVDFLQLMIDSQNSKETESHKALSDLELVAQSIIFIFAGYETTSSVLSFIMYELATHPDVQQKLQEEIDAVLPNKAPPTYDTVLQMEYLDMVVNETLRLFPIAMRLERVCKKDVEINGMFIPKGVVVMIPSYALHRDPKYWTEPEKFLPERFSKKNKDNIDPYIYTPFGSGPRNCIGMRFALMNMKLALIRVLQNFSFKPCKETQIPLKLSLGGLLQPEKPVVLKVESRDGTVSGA
Chain of P-gp (P08183 whole entry): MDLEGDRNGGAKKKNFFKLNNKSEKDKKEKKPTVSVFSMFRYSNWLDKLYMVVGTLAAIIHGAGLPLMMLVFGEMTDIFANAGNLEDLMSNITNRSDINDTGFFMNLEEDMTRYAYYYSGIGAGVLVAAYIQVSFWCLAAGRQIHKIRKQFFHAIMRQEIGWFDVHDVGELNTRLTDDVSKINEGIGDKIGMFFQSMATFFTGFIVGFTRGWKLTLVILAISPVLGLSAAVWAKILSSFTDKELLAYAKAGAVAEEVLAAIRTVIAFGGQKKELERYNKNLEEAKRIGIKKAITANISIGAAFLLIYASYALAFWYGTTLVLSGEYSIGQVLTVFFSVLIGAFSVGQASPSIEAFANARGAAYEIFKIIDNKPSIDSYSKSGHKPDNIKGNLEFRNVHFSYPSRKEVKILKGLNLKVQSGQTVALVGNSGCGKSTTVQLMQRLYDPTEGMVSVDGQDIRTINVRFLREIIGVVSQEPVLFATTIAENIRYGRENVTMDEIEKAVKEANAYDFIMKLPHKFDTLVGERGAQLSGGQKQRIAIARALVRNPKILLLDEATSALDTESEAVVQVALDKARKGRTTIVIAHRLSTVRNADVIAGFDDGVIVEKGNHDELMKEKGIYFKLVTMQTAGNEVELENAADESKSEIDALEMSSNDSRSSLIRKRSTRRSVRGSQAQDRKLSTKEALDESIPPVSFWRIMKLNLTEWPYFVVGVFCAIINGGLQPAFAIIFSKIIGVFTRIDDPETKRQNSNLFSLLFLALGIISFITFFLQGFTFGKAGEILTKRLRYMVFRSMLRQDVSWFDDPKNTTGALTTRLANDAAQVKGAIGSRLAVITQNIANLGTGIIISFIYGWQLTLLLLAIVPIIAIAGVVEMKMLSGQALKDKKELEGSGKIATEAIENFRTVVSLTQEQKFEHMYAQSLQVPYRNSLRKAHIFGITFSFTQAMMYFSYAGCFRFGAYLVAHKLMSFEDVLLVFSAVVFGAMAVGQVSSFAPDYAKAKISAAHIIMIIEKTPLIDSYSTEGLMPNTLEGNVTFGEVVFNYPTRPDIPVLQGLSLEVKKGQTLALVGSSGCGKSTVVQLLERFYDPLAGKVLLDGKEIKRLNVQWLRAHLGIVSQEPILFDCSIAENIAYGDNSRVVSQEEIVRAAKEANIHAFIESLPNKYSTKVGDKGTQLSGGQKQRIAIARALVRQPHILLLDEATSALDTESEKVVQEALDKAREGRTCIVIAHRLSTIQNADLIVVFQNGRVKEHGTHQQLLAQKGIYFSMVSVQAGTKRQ
Chain of BSEP (O95342 whole entry, species assumed): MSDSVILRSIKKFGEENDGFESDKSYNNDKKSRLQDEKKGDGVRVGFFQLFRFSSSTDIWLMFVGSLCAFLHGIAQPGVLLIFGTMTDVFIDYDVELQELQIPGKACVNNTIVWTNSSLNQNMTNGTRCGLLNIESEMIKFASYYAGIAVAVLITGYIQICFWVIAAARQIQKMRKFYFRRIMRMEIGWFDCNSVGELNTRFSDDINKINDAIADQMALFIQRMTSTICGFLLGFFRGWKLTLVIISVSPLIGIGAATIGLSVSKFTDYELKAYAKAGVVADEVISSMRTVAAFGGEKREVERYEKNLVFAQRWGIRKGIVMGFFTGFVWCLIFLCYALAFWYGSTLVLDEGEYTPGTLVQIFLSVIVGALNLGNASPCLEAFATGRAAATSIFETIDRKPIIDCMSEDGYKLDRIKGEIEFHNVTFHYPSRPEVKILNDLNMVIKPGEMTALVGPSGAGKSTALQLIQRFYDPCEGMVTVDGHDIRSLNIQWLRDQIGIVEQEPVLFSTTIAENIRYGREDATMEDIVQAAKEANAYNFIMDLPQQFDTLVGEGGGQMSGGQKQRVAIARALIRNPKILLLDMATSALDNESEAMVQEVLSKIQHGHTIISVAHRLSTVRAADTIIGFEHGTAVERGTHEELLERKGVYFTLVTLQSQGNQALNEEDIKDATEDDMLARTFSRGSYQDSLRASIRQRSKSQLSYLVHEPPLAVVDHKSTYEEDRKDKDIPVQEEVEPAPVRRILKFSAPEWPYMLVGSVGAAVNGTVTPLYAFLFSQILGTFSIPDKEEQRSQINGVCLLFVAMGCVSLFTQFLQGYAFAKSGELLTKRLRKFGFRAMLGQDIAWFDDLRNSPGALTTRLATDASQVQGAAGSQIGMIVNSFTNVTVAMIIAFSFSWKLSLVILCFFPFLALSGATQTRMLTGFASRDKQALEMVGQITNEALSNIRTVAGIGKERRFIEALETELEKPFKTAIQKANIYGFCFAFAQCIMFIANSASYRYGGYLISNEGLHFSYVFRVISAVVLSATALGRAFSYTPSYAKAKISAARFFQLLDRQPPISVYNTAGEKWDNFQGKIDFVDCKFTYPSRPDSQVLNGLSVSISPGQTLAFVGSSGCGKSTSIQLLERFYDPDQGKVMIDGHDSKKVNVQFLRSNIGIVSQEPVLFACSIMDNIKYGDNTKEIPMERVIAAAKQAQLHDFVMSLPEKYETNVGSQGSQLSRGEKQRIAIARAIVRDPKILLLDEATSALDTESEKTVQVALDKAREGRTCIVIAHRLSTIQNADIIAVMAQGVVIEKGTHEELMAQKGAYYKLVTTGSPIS
Chain of OAT1 (Q4U2R8 whole entry, species assumed): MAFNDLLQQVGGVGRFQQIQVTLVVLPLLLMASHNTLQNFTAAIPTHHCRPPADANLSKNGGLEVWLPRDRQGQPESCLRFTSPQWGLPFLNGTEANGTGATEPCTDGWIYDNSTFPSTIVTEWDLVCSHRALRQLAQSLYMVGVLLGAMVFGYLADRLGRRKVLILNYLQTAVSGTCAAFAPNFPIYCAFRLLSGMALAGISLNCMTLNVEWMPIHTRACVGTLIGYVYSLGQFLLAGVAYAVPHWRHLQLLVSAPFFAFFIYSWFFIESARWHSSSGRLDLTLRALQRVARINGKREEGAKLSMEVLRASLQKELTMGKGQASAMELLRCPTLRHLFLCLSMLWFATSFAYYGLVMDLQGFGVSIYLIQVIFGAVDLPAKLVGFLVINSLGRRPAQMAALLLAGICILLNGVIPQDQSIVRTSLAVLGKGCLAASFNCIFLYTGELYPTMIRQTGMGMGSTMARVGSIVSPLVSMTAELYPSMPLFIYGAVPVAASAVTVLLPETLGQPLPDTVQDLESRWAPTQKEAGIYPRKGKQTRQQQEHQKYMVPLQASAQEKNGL

**Q.** Which results are given for `CC(C)n1nccc1-c1ncccc1COc1cccc(O)c1C=O` [voxelotor, 2-hydroxy-6-((2-(1-isopropyl-1H-pyrazol-5-yl)pyridin-3-yl)methoxy)benzaldehyde]?
**A.** serious hypersensitivity reactions, patients treated (patients treated): < 1%; exposures, tablet for oral suspension dispersed in water vs oral tablet swallowed whole [1]: comparable; effect of omeprazole (proton pump inhibitor) on voxelotor exposure [2]: did not alter voxelotor exposure; maternal gestational body weights (pregnant rats [3]; 250 mg/kg/day, gestation day 6 through lactation day 20): decreased; findings in offspring (pregnant rats [3]; maternal dose 250 mg/kg/day): reduced survival and reduced body weights; exposure at 250 mg/kg/day relative to exposure in patients at recommended dose (pregnant rats [3]; maternal dose with offspring effects): approximately 2.8 times; P-gp inhibition (P-gp): not an inhibitor; substrate of P-gp (P-gp): not a substrate; increase of voxelotor AUC with itraconazole (CYP3A4 [4]): 11%; BSEP inhibition (BSEP): not an inhibitor; substrate of BSEP (BSEP): not a substrate; hygroscopicity [5]: non-hygroscopic; solubility in common organic solvents such as acetone and toluene [5]: highly soluble; solubility in water [5]: insoluble in water; CYP3A4 inhibition in vivo (CYP3A4 [6]): inhibits; CYP3A4 inhibitor classification (CYP3A4 [6]): moderate inhibitor; developmental outcome (pregnant rats [7]): no adverse developmental effects; also recorded: no evidence of adverse developmental outcomes; adjusted mean change from baseline to Week 24 in hemoglobin (patients with SCD; 1,500 mg QD, N=90): 1.1 g/dL; adjusted mean percent change from baseline to Week 24 in indirect bilirubin (patients with SCD; 1,500 mg QD, N=90): −29.1%; adjusted mean percent change from baseline to Week 24 in percent reticulocyte count (patients with SCD; 1,500 mg QD, N=90): −18.0%; Hb response rate (Hb increase >1 g/dL from baseline to Week 24) (patients with SCD; 1,500 mg once daily, 46/90, adults and pediatric patients 12 years and older): 51%; OAT1 inhibition (OAT1): not an inhibitor; sperm morphology (rats; 250 mg/kg/day): changes in sperm morphology; sperm motility (rats; 250 mg/kg/day): decreased; fertility or reproductive function (rats; oral 15, 50, 250 mg/kg/day): no effect on fertility or reproductive function; exposure at 250 mg/kg/day relative to human exposure at 1,500 mg/day (rats; rat, in vivo): approximately 5 times
